Key:
[1] = tested on: differentiated 3T3-L1 cells; experiment: Proliferation (CyQUANT NF) of differentiated adipocytes; type: cell-based, murine; settings: 72 hr treatment, all concentrations ≥1 μM
Protocol: Proliferation: 3T3-L1 cells were seeded and differentiated in black clear bottom 96-well plates (Corning®). After differentiation, wells were treated with vehicle or AZD3965 concentrations ranging from 10 nM to 10 µM for 24 hr, 48 hr or 72 hr as indicated. Cell viability was measured at the end of each treatment time using the CyQUANT™ NF Cell Proliferation assay (Invitrogen™) according to the manufacturer's protocols.

[2] = tested on: differentiated 3T3-L1 adipocytes; experiment: Intracellular lactate (Lactate-Glo); type: cell-based, murine; settings: 1 μM
Protocol: Intracellular Lactate: Intracellular lactate was measured using the Lactate-Glo™ Assay Kit (Promega®) according to the manufacturer's instructions. 3T3-L1 cells were seeded and differentiated in white clear bottom 96-well plates (Corning®). After differentiation, cells were treated with compound or vehicle as indicated. Following 15 min, 30 min, 1 hr, 4 hr, 8 hr or 24 hr incubation with […] AZD6965, media was removed, and cells were lysed. Lysates were then subjected to a proprietary enzymatic reaction coupling lactate oxidation and NADH production with a bioluminescent detection system supplied by the Lactate-Glo™ Assay kit, and luminescence was read on a spectrophotometer (FlexStation 3; Molecular Devices). The data generated were normalized by dividing the relative luminescence units (RLU) collected for each experimental condition by the average RLU of vehicle control.

## Cc1[nH]nc(C(F)(F)F)c1Cc1sc2c(c1C(=O)N1C[C@](C)(O)CO1)c(=O)n(C)c(=O)n2C(C)C [AZD3965, 5-[[(4S)-4-hydroxy-4-methyl-2-isoxazolidinyl]carbonyl]-3-methyl-1-(1-methylethyl)-6-[[5-methyl-3-(trifluoromethyl)-1H-pyrazol-4-yl]methyl]-thieno[2,3-d]pyrimidine-2,4 (1H, 3H)-dione]
[1]
  total cell number (proliferation): significant increase in total cell number
[2]; after 24 hr
  intracellular lactate levels relative to basal: approximately 2 fold
[2]; within 15 minutes, maintained through first 4 hr
  intracellular lactate: significant increase

Source: patent US12491187B2, “Use of MCT1 inhibitors to enhance insulin sensitivity” (H. LEE MOFFIT CANCER CENTER AND RESEARCH INSTITUTE, INC., priority 2022, dated 2025)
